The values below come from ChEMBL document CHEMBL1821680, “Current status and research strategies in tuberculosis drug development” (2011).

The assay deals with Mycobacterium tuberculosis. In words: Antituberculosis activity against Mycobacterium tuberculosis H37Rv. It is filed as functional.

≈ marks a conversion by molar mass, not a printed value.

Broadly, the IC90 is the concentration at which the effect reaches the 90% level. In turn, `FC(F)(F)c1ccccc1Nc1nc(-c2ccccn2)cs1` returned an IC90 below 0.1 µg/mL.

In turn, `Cc1ccc2oc(-c3cc(NC(=O)Cc4ccccc4)ccc3Cl)nc2c1` showed an IC90 below 0.1 µg/mL.

The molecule `O=C(Nc1nc(-c2ccccc2)c(-c2ccccc2)o1)c1ccc(F)cc1` had a concentration for an effect of 90% (IC90) below 0.1 µg/mL.

`Cc1cccc(Nc2nc(-c3ccccn3)cs2)n1` registered an IC90 below 0.1 µg/mL.

Take `Clc1ccc(Nc2nc(-c3ccccn3)cs2)nc1`: the IC90 is below 0.1 µg/mL.

The term MIC denotes the lowest concentration found to suppress growth. Low readings indicate a more susceptible organism, high ones a less susceptible organism. `C[C@@H]1COC2(CCN(c3nc(=O)c4cc(C(F)(F)F)cc([N+](=O)[O-])c4s3)CC2)O1` showed an MIC of 0.001 µg/mL (≈ 0.00232 µM).

Molecule `O=C(Nc1ccc(F)c(Cl)c1)C12CC3CC(CC(C3)C1)C2` registered an IC90 below 0.1 µg/mL.

`O=C(Nc1ccc(F)c(Cl)c1)c1ccc([N+](=O)[O-])o1` yielded an IC90 below 0.1 µg/mL.

As for `Cc1c(Cl)cccc1NC(=O)OC(C)(OC1CCCCC1)C(=O)O` (stereo not given), the IC90 was below 0.1 µg/mL.

In turn, `CC(C)(C)c1ccc(C(=O)Nc2nc3ccccc3[nH]2)cc1` had an IC90 below 0.1 µg/mL.

The molecule `COC(=O)COc1ccc(NC(=O)COc2ccc(C)cc2C)cc1` returned an IC90 below 0.1 µg/mL.

With `CC1(CNC(=O)Nc2ccc(C(F)(F)F)cc2)CC2CCC1C2` (stereo not given), the concentration for an effect of 90% (IC90) was below 0.1 µg/mL.

With `O=c1c2ccccc2nc(/C=C/c2ccc([N+](=O)[O-])o2)n1CCCO`, the IC90 was below 0.1 µg/mL.

The molecule `C[C@H]1COC2(CCN(c3nc(=O)c4cc(C(F)(F)F)cc([N+](=O)[O-])c4s3)CC2)O1` [BTZ-043] returned a minimum inhibitory concentration (MIC) of 0.001 µg/mL (≈ 0.00232 µM).

For `COC(=O)c1nc(N)sc1Cc1ccccc1`, the MIC was found to be 0.06 µg/mL (≈ 0.242 µM).

For `Cc1ccc(C(=O)Nc2ccc([N+](=O)[O-])cc2C)cc1I`, the 90% effect concentration (IC90) was below 0.1 µg/mL.

For `COc1ccc(CCNC(=O)CCc2ncc(C(C)(C)C)s2)cc1`, the IC90 was below 0.1 µg/mL.

`O=S1(=O)C=C(Sc2nc3ccccc3s2)c2ccccc21` returned an IC90 below 0.1 µg/mL.

`Cc1cc([N+](=O)[O-])ccc1NC(=O)c1ccc(-c2ccccc2)cc1` showed an IC90 below 0.1 µg/mL.

`O=C(CC12CC3CC(CC(C3)C1)C2)Nc1ccc2ccccc2c1` displayed an IC90 below 0.1 µg/mL.

The molecule `Cc1sc(N)nc1C(=O)O` gave an MIC of 0.06 µg/mL (≈ 0.379 µM).

`CC(C)(C)c1cc(Cl)c(O)c(NC(=S)NC(=O)c2ccc3ccccc3c2)c1` gave an IC90 below 0.1 µg/mL.

As for `CSc1ncnc2c1ncn2CC(=O)Nc1ccc(C)c(C)c1`, the IC90 was below 0.1 µg/mL.

For `Cc1cccnc1Nc1nc(-c2ccccn2)cs1`, the IC90 was below 0.1 µg/mL.

For the molecule `CSc1ncc(C(=O)Nc2cccc(C(F)(F)F)c2)cn1`, the IC90 is below 0.1 µg/mL.
